15 compounds from PubChem BioAssay AID248 (DTP/NCI, 2004) can be followed below.

In this assay the test system is L1210 leukemia ip in BDF1 mice, survival T/C. Briefly: NCI In Vivo Anticancer Drug Screen. Data for tumor model L1210 Leukemia (intraperitoneal) in B6D2F1 (BDF1) mice. The following applies: endpoint: mean survival time, higher = longer survival. In a few lines: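 Mice bearing the transplanted tumor received compound or vehicle. Survival of the treated group was divided by that of the vehicle-treated control group to give the ratio.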

The mark [1] stands for this setting: dose: 100.0 mg/kg/injection, schedule: Q01DX001 (ip), vehicle: Klucel (hydroxypropylcellulose) (HPC).
[2] abbreviates: dose: 100.0 mg/kg/injection, schedule: Q01DX009 (ip), vehicle: Klucel (hydroxypropylcellulose) (HPC).
Where [3] appears, read: dose: 100.0 mg/kg/injection, schedule: Q04DX003 (ip), vehicle: Klucel (hydroxypropylcellulose) (HPC).
Setting [4] is: dose: 200.0 mg/kg/injection, schedule: Q01DX001 (ip), vehicle: Klucel (hydroxypropylcellulose) (HPC).
The mark [5] stands for this setting: dose: 400.0 mg/kg/injection, schedule: Q01DX001 (ip), vehicle: Klucel (hydroxypropylcellulose) (HPC).
[6] abbreviates: dose: 200.0 mg/kg/injection, schedule: Q01DX009 (ip), vehicle: Klucel (hydroxypropylcellulose) (HPC).
The mark [7] stands for this setting: dose: 200.0 mg/kg/injection, schedule: Q04DX003 (ip), vehicle: Klucel (hydroxypropylcellulose) (HPC).
[8] abbreviates: dose: 400.0 mg/kg/injection, schedule: Q01DX009 (ip), vehicle: Klucel (hydroxypropylcellulose) (HPC).
[9] abbreviates: dose: 400.0 mg/kg/injection, schedule: Q04DX003 (ip), vehicle: Klucel (hydroxypropylcellulose) (HPC).
Where [10] appears, read: dose: 200.0 mg/kg/injection, schedule: Q01DX001 (ip), vehicle: carboxymethylcellulose (CMC).
Where [11] appears, read: dose: 100.0 mg/kg/injection, schedule: Q04DX003 (ip), vehicle: acetone.
Where [12] appears, read: dose: 200.0 mg/kg/injection, schedule: Q04DX003 (ip), vehicle: acetone.
The mark [13] stands for this setting: dose: 100.0 mg/kg/injection, schedule: Q01DX009 (ip), vehicle: saline with Tween-80.
Where [14] appears, read: dose: 100.0 mg/kg/injection, schedule: Q04DX003 (ip), vehicle: saline with Tween-80.
Setting [15] is: dose: 200.0 mg/kg/injection, schedule: Q01DX009 (ip), vehicle: saline with Tween-80.
Setting [16] is: dose: 400.0 mg/kg/injection, schedule: Q01DX009 (ip), vehicle: saline with Tween-80.
[17] abbreviates: dose: 400.0 mg/kg/injection, schedule: Q04DX003 (ip), vehicle: saline with Tween-80.

Inconclusive results and toxic doses are left out.

Consider `CCOC(=O)c1c[nH]c2nc(SC)[nH]c(=O)c2c1=O`, for which the T/C runs as follows: (dose: 25.0 mg/kg/injection, schedule: Q01DX009 (ip), vehicle: Klucel (hydroxypropylcellulose) (HPC)) 86 % of control; (dose: 25.0 mg/kg/injection, schedule: Q04DX003 (ip), vehicle: Klucel (hydroxypropylcellulose) (HPC)) 104 % of control; (dose: 50.0 mg/kg/injection, schedule: Q01DX009 (ip), vehicle: Klucel (hydroxypropylcellulose) (HPC)) 93 % of control; (dose: 50.0 mg/kg/injection, schedule: Q04DX003 (ip), vehicle: Klucel (hydroxypropylcellulose) (HPC)) 103 % of control; under setting [1], 102 % of control; under setting [2], 101 % of control. For the same compound, the T/C is 101 % of control under setting [3], 98 % of control under setting [4] and 107 % of control under setting [5].

As for `CCN(CC)CCN1C(=O)C(c2ccccc2)C2(CCN(C)CC2)C1=O` (centres undefined), the T/C by setting is: (dose: 100.0 mg/kg/injection, schedule: Q01DX001 (ip), vehicle: saline) 101 % of control; (dose: 200.0 mg/kg/injection, schedule: Q01DX001 (ip), vehicle: saline) 105 % of control; (dose: 400.0 mg/kg/injection, schedule: Q01DX001 (ip), vehicle: saline) 97 % of control.

Turning to `c1ccc(CNCCOB(OCCNCc2ccccc2)OCCNCc2ccccc2)cc1`, the T/C under setting [2] is 94 % of control; the T/C under setting [3] was 98 % of control; the T/C under setting [6] is 94 % of control; the T/C under setting [7] was 111 % of control; the T/C under setting [8] is 97 % of control; the T/C under setting [9] is 95 % of control.

For `CCCCOC(c1ccccc1)N1CCCCC1` (centres undefined), the T/C under setting [10] is 95 % of control.

In the case of `O=NN(CCCl)C(=O)Nc1ccc2ccccc2c1`, the T/C reads like this: under setting [10], 161 % of control; (dose: 300.0 mg/kg/injection, schedule: Q01DX001 (ip), vehicle: carboxymethylcellulose (CMC)) 172 % of control; (dose: 400.0 mg/kg/injection, schedule: Q01DX001 (ip), vehicle: carboxymethylcellulose (CMC)) 96 % of control.

For `CCCCOC(=O)CC(=O)OC`, the T/C reads like this: (dose: 100.0 mg/kg/injection, schedule: Q01DX009 (ip), vehicle: acetone) 93 % of control; under setting [11], 100 % of control; (dose: 200.0 mg/kg/injection, schedule: Q01DX009 (ip), vehicle: acetone) 90 % of control; under setting [12], 103 % of control; (dose: 400.0 mg/kg/injection, schedule: Q01DX009 (ip), vehicle: acetone) 93 % of control; (dose: 400.0 mg/kg/injection, schedule: Q04DX003 (ip), vehicle: acetone) 107 % of control.

`O=C(Nc1nc(Cl)nc(Cl)n1)N1CCOCC1`: the T/C by setting is: (dose: 12.5 mg/kg/injection, schedule: Q04DX003 (ip), vehicle: saline with Tween-80) 95 % of control; (dose: 25.0 mg/kg/injection, schedule: Q01DX009 (ip), vehicle: saline with Tween-80) 113 % of control; (dose: 25.0 mg/kg/injection, schedule: Q04DX003 (ip), vehicle: saline with Tween-80) 101 % of control.

Consider `Nc1ccc(C(=O)C(=O)c2ccc(N)cc2)cc1`, for which the T/C reads like this: (dose: 75.0 mg/kg/injection, schedule: Q01DX001 (ip), vehicle: acetone) 102 % of control; (dose: 150.0 mg/kg/injection, schedule: Q01DX001 (ip), vehicle: acetone) 94 % of control.

As for `O=C(/C=C/C=C/c1ccccc1)c1ccc(Cl)cc1`, the T/C reads like this: under setting [13], 97 % of control; under setting [14], 95 % of control; under setting [15], 92 % of control; under setting [16], 95 % of control; under setting [17], 96 % of control.

Turning to `CCCC(=O)OCC1CO1` (centres undefined), the T/C runs as follows: under setting [1], 100 % of control; under setting [3], 104 % of control; under setting [4], 104 % of control; under setting [7], 98 % of control; under setting [5], 102 % of control; under setting [9], 106 % of control.

Turning to `O=C1/C(=C/c2ccccn2)COc2ccccc21`, the T/C reads like this: (dose: 100.0 mg/kg/injection, schedule: Q04DX003 (ip), vehicle: carboxymethylcellulose (CMC)) 93 % of control; (dose: 200.0 mg/kg/injection, schedule: Q04DX003 (ip), vehicle: carboxymethylcellulose (CMC)) 95 % of control; (dose: 400.0 mg/kg/injection, schedule: Q04DX003 (ip), vehicle: carboxymethylcellulose (CMC)) 103 % of control.

For `NC(N)=N/C(N)=N/NC(=O)c1ccncc1`, the T/C is, setting by setting: (dose: 66.0 mg/kg/injection, schedule: Q01DX Z (ip), vehicle: methylcellulose (MC)) 100 % of control; (dose: 93.0 mg/kg/injection, schedule: Q01DX Z (ip), vehicle: methylcellulose (MC)) 89 % of control; (dose: 140.0 mg/kg/injection, schedule: Q01DX Z (ip), vehicle: methylcellulose (MC)) 91 % of control.

Turning to `O=C(Nc1ccc(S(=O)(=O)F)cc1[N+](=O)[O-])c1ccc2ccccc2c1O`, the T/C is 104 % of control under setting [2], 96 % of control under setting [6] and 93 % of control under setting [8].

With `NOCc1ccc(OCc2ccccc2)cc1`, the T/C reads like this: under setting [11], 102 % of control; under setting [12], 95 % of control.

Consider `CCCCN(CC)/N=N/c1nc[nH]c1C(N)=O`, for which the T/C is, setting by setting: (dose: 100.0 mg/kg/injection, schedule: Q01DX001 (ip), vehicle: saline with Tween-80) 95 % of control; under setting [13], 117 % of control; under setting [14], 94 % of control; (dose: 200.0 mg/kg/injection, schedule: Q01DX001 (ip), vehicle: saline with Tween-80) 101 % of control; under setting [15], 124 % of control; (dose: 200.0 mg/kg/injection, schedule: Q04DX003 (ip), vehicle: saline with Tween-80) 110 % of control. Besides, the T/C is, setting by setting: (dose: 400.0 mg/kg/injection, schedule: Q01DX001 (ip), vehicle: saline with Tween-80) 116 % of control; under setting [16], 88 % of control; under setting [17], 103 % of control.
